Measurements from paper PMC5962729 (Frontiers in Pharmacology, 2018).
Like-named read-outs stand apart in the source and are kept apart here.

Assays:
Assay type in all cases: in vivo, rat
[1] = Pharmacokinetic study of YCHD components and phase II metabolites in normal rats (UHPLC-MS/MS, sulfatase enzymolysis); details: for Tmax / Cmax / MRT inf / half-life / CL/F / Vd/F: rat; for MRT inf: read-out: MRT (0-∞) (converted); for half-life: read-out: t1/2z; for CL/F: read-out: CLz/F; for Vd/F: read-out: Vz/F
Method: To explore the pharmacokinetic properties of YCHD following intragastric administration in rats, a rapid and sensitive method involving the use of UHPLC-MS/MS (Agilent 6460 series, Agilent Technologies, Santa Clara, CA, United States) was developed and validated for the simultaneous quantification of 10 active components of rat plasma. The quantification was conducted in ESI negative ionization mode, and the mass spectrometry conditions were as follows: capillary voltage, 3500 V; gas flow, 12 L/min; nebulizer, 40 psi; gas temperature, 350°C; and delta EMV (-), 400. A 5 μL extraction sample was injected into the column (Agilent SB-C18 column, 2.1 mm × 50 mm, 1.8 μm) and eluted at 0.4 mL/min with a gradient elution of water (with 0.4% v/v formic acid) (A) and acetonitrile (B) (0–3 min, 5–60% B; 3–5 min, 60–90% B; 5–5.1 min, 90–5% B; and re-equilibration for 3 min).
To each 50 μL plasma sample, 10 μL of internal standard solution (paeoniflorin, 1000 ng/mL) and 300 μL of a mixed solution of methanol and acetonitrile (v/v, 1:1; containing 1% formic acid) were added. Subsequently, the solution was vortex mixed for 5 min. After centrifugation at 15,000 rpm for 5 min, the supernatant was transferred completely into a tube, before being evaporated under N2 at 40°C. The residue was then dissolved in 50 μL of 50% methanol–water (v/v, 1:1) through vortexing for 5 min, after centrifugation at 15,000 rpm for 10 min. Finally, 5 μL of the supernatant sample was injected into the UHPLC-MS/MS system for analysis.
The rats were randomly divided into two groups (n = 5 for each group). […] After 24 h, the two groups of rats received a single oral dose of YCHD (12 g/kg). Blood was collected in heparinized tubes at 5, 15, 30, 45, 60, 120, 240, 360, 480, 720, and 1440 min after administration. The blood samples were centrifuged at 4000 rpm for 10 min, and the supernatant plasma was harvested. Plasma samples (50 μL) were immediately processed as outlined in Section “Chromatographic and Mass Spectrometry Conditions.”
Additional plasma samples (50 μL) were enzymatically hydrolyzed with 50 μL of enzyme solution (65.86 mg of sulfatase, dissolved in 2 mL of sodium acetate buffer, pH 5.0) for phase II metabolite quantification, in accordance with our previous study ([Ding et al., 2012]). After being vortex mixed for 5 min, the mixture was incubated at 37°C for 30 min and then returned to room temperature. Subsequently, the samples were processed as outlined in Section “Chromatographic and Mass Spectrometry Conditions” for UHPLC-MS/MS analysis. During routine analysis, each analytical run included six blank plasma samples, a set of calibration samples, a set of QC samples, and unknowns.
All data are presented as mean ± SD. A one-way analysis of variance was used to compare data between two groups using SPSS (Version 21.0). The differences were considered to be statistically significant when p < 0.05 and highly significant when p < 0.01 or p < 0.001. Pharmacokinetic data analysis was performed using DAS 2.1.1 software (Mathematical Pharmacology Professional Committee of China, Shanghai, China).
After sulfatase-aided enzymolysis, all the phase II metabolites could transform into their prototypes, including rhein, emodin, genipin, and capillarisin. The specific contents of the phase II metabolites of these components were detected indirectly by evaluating the content difference of their prototypes in samples after enzymolysis and before enzymolysis
CG = Ca −[MG × (CGG/MGG + CGe/MGe)]
Ca, CGG, and CGe represent the concentration of genipin, genipin-1-β-D-gentiobioside, and geniposide after enzymolysis of sulfatase, respectively. MG, MGG-, and MGe represent the mass of genipin, genipin-1-β-D-gentiobioside, and geniposide, respectively. The pharmacokinetic curves of phase II metabolites are illustrated in Figure 4B.

[2] = system: ANIT-induced cholestatic liver injury; test: Liver histopathological examination (H&E) in ANIT-induced cholestatic rats; details: UDCA + ANIT 50 mg/kg
Method: Male Sprague Dawley rats (230 ± 20 g, 6–8 weeks of age) were purchased from B&K Laboratory Animal, Corp. Ltd. (Shanghai, China) and fed in the Laboratory Animal Center of Shanghai University of Traditional Chinese Medicine. All rats were allowed to acclimatize for 3 days before experimentation. The rats were randomly divided into six groups (n = 5 for each group). […] Moreover, groups 1 and 2 were intragastrically treated with physiological saline (0.9%) at a dose of 1 mL/100 g. […] At the end of the experiment, all rats were euthanized by CO2 inhalation. The serum samples were stored at -70°C until analysis, and liver samples were isolated and stored at -70°C for further analysis, whereas the central part of the right large lobe of the liver was used for histological examination.

[3] = system: ANIT-induced cholestatic liver injury; test: Serum biochemistry (ALT, AST, TBIL, DBIL, TBA) in ANIT-induced cholestatic liver injury
Method: Ltd. (Shanghai, China) and fed in the Laboratory Animal Center of Shanghai University of Traditional Chinese Medicine. […] The rats were randomly divided into six groups (n = 5 for each group). […] [Cao et al., 2017]). […] Before and 24 h after modeling, retro-orbital blood samples were collected in a coagulation tube, and they were then centrifuged at 4°C for 10 min (4000 rpm) to obtain the serum for the assay of ALT, AST, TBIL, DBIL, and TBA. At the end of the experiment, all rats were euthanized by CO2 inhalation. The serum samples were stored at -70°C until analysis, and liver samples were isolated and stored at -70°C for further analysis, whereas the central part of the right large lobe of the liver was used for histological examination.  FIGURE 2 The scheme of the animal experimental design. […] UDCA, positive control group treated with ursodeoxycholic acid (UDCA) (100 mg/kg, […].); […] A closed IV catheter system (Becton Dickinson, United States) was applied to cannulate the bile duct, and the bile specimens were collected into tubes at 2 h intervals for 6 h. The collected serum samples were maintained at room temperature to dissolve. The serum levels of ALT, AST, TBIL, DBIL, and TBA were then determined using a chemistry analyzer system (HITACHI 7080, Japan).

[4] = Control group (normal rats), single oral YCHD 12 g/kg, plasma
[5] = Sprague Dawley, plasma, po, 12 g/kg, in normal and cholestatic rats after oral administration of YCHD
[6] = plasma, po, 12 g/kg, Control group (normal rats), single oral YCHD 12 g/kg, plasma
[7] = in vivo, Control group (normal rats), single oral YCHD 12 g/kg, plasma
[8] = Sprague Dawley, Control group (normal rats), single oral YCHD 12 g/kg, plasma
[9] = Sprague Dawley, in vivo, Control group (normal rats), single oral YCHD 12 g/kg, plasma
[10] = UDCA 100 mg/kg i.g. daily 10 days, ANIT 50 mg/kg on day 8, serum

Tmax [1, 5] | Tmax [1, 6] | Cmax [1, 4] | MRT inf [1, 4] | CL/F [1, 4] | SMILES | AUC(0-∞) [1, 4] | Ka [1, 4] | other results
≤ 0.45 h | 0.25 h | 1580 ± 133 ng/mL | 4.82 h |  | CC(=O)c1ccc(O)cc1 [4-hydroxyacetophenone, 4-Hydroxyacetophenone] | 192358.2 ± 102858.3 µg·min/L | 406.1 ± 333.9 min⁻¹ | half-life [1, 4]: 13.8 ± 13.6 h
 |  |  |  |  | COC(=O)C1=CO[C@@H](O[C@@H]2O[C@H](CO)[C@@H](O)[C@H](O)[C@H]2O)[C@@H]2C(CO)=CC[C@H]12 [Geniposide] | 384279.8 ± 184237.0 µg·min/L | 702.9 ± 413.6 min⁻¹ | Tmax ([1]; Sprague Dawley, in vivo, 12 g/kg, in normal and cholestatic rats after oral administration of YCHD): ≤ 0.45 h; Cmax [1, 7]: 524 ± 59.4 ng/mL; Tmax [1, 7]: 0.3 h; CL/F [1, 7]: 122 ± 22 mL/min/kg; MRT inf [1, 7]: 3.36 h; Vd/F [1, 7]: 21.1 ± 12 L/kg; half-life [1, 7]: 1.9 ± 0.765 h
≤ 0.45 h | 0.25 h | 3040 ± 397 ng/mL | 2.01 h | 41 ± 6 mL/min/kg | O=C(O)c1cc(O)c2c(c1)C(=O)c1cccc(O)c1C2=O [Rhein] | 874792.3 ± 503744.0 µg·min/L | 4443.6 ± 454.1 min⁻¹ | Vd/F [1, 4]: 3.79 ± 0.53 L/kg; half-life [1, 4]: 1.06 ± 0.00833 h
 |  |  |  |  | COC(=O)C1=COC(OC2OC(CO)C(O)C(O)C2O)C2C(CO)=CC(O)C12 (stereo not shown) [Scandoside methyl ester] | 233687.2 ± 127559.1 µg·min/L | 477.5 ± 133.9 min⁻¹ | Cmax [1, 9]: 127 ± 8.9 ng/mL; Tmax [1, 9]: 0.35 h; CL/F [1, 9]: 184 ± 33 mL/min/kg; MRT inf [1, 9]: 6.08 h; Vd/F [1, 7]: 62 ± 30.8 L/kg; half-life [1, 7]: 3.82 ± 1.76 h
 |  |  |  |  | C[C@H](CCC(=O)O)[C@H]1CC[C@H]2[C@@H]3[C@@H](O)C[C@@H]4C[C@H](O)CC[C@]4(C)[C@H]3CC[C@]12C [UDCA, Ursodeoxycholic acid] |  |  | liver histopathology (H&E) [2]: hepatocyte hydropic degeneration with less neutrophil infiltration and a milder degree of bile duct epithelial damage; ALT [3, 10]: 400.6±200.0 IU/L; AST [3, 10]: 611.8±257.2 IU/L; DBIL [3, 10]: 21.2 ± 9.0 µmol/L; TBA [3, 10]: 428.1 ± 55.9 µmol/L; TBIL [3, 10]: 28.2 ± 19.0 µmol/L; serum TBA decreased to (printed), compared with the control group (printed) ([3]; UDCA 100 mg/kg, ANIT-treated rats, p < 0.001): 30.9%; serum DBIL decreased to (printed), compared with the control group (printed) ([3]; UDCA 100 mg/kg, ANIT-treated rats, p < 0.01): 40.9%
≤ 0.45 h | 0.35 h | 106 ± 3.9 ng/mL | 2.13 h | 1040 ± 56 mL/min/kg | COC(=O)C1=CO[C@@H](O[C@@H]2O[C@H](CO[C@@H]3O[C@H](CO)[C@@H](O)[C@H](O)[C@H]3O)[C@@H](O)[C@H](O)[C@H]2O)[C@@H]2C(CO)=CC[C@H]12 [genipin-1-β-D-gentiobiodide, Genipin-1-β-D-gentiobiodide] | 38557.0 ± 20175.1 µg·min/L | 95.5 ± 16.2 min⁻¹ | Vd/F [1, 8]: 170 ± 52.3 L/kg; half-life [1, 8]: 1.93 ± 0.538 h

SMILES | Tmax [1, 5] | Tmax [1, 6] | Cmax [1, 4] | MRT inf [1, 4] | CL/F [1, 4] | AUC(0-∞) [1, 4] | Ka [1, 4] | other results
O=C(O)C1=CO[C@@H](O[C@@H]2O[C@H](CO)[C@@H](O)[C@H](O)[C@H]2O)[C@@H]2C(CO)=CC[C@H]12 [Geniposidic acid] |  |  | 449 ± 34.2 ng/mL | 5.93 h | 30 ± 4 mL/min/kg | 1374849.8 ± 734718.1 µg·min/L | 11255.3 ± 11024.4 min⁻¹ | Vd/F [1, 8]: 8.6 ± 3.2 L/kg; half-life [1, 8]: 3.23 ± 0.755 h; Tmax [1, 7]: 4.4 h
